Experimental data: article PMC8129988 (Inorganic Chemistry Frontiers, 2021)

Experiments:
[1] = serum stability in fetal calf serum (HPLC-MS); assay type: in vitro ADME; conditions: 37 °C
Protocol: Therefore, we only investigated the stability of the novel complexes in fetal calf serum (FCS). As reference again Co(acac)2LEGFR[26] was included. The complexes were dissolved in 50 mM phosphate puffer and mixed 1 : 10 with fetal calf serum (FCS; buffered with 150 mM phosphate buffer to keep a stable pH of 7.4) to a final concentration of 50 μM. The samples were incubated at 37 °C and after 0, 2, 4, 6, 24 and 26 h extracted with acetonitrile and measured by HPLC-MS. […] This indeed confirms, that by avoiding the direct attachment of the ethylenediamine moiety to an aromatic ring system, complexes with much higher stability can be generated. Since no distinct difference in stability between Co(acac)2LPon and Co(Meacac)2LPon within 26 h could be observed, measurements were repeated up to 72 h.
For serum stability measurements, 135 μL FCS, buffered with 150 mM phosphate (Na2HPO4/NaH2PO4) to maintain a pH value of 7.4, were mixed with 15 μL of a 500 μM stock solution of the respective complex in 50 mM phosphate buffer to reach a final concentration of 50 μM. The samples were incubated at 37 °C. At different time points to 20 μL serum 40 μL of ACN were added. After vigorously shaking for 2 min the suspension was centrifuged at 6000 rpm for 10 min. The supernatant was taken with a syringe and directly measured via HPLC-MS. The samples were analyzed on an Agilent 1260 Infinity system using a Waters Atlantis T3 column (150 mm × 4.6 mm) coupled to a Bruker Amazon SL ESI-IT mass spectrometer. Water and acetonitrile (both containing 0.1% formic acid) were used as eluents with a gradient of 1–99% acetonitrile within 29 min.

[2] = tested on: p-ERK1/2 and p-S6 in K-562 cells; assay: western blot of downstream signalling, 12 h; assay type: cell-based, human; conditions: hypoxic conditions, K-562, 12 h
Protocol: Fig. 10 Impact of the cobalt(III) complexes on the ERK1/2 and S6 under normoxic and hypoxic conditions. K-562 cells were treated with the compounds, after 12 h cell lysates were prepared and protein expression as well as phosphorylation levels of downstream pathways (p-ERK1/2 and p-S6) analyzed by western blotting. One representative experiment out of three is shown. The ratio of phosphorylated to total protein is given between the respective lanes.
K-562 cells were plated (5 × 10^5 cells per well) in 6-well plates and allowed to recover for 24 h. Subsequently, the cells were treated with the drugs in different concentrations. After 12 h cells were harvested, proteins were isolated, resolved by sodium dodecyl sulfate polyacrylamide gel electrophoresis (SDS/PAGE), and transferred onto a polyvinylidene difluoride membrane for western blotting. The following antibodies were used: ERK1/2 (p44/42) rabbit monoclonal antibody (mAb) (137F5, #4695), phospho-ERK1/2 rabbit mAb (Thr202/Tyr204) (20G11, #4376), phospho-S6 rabbit pAb (Ser240/244, #2215) (Cell Signaling Technology, Beverly, MA, USA), S6 mouse mAb (C-8. #sc-74459) (Santa Cruz Biotechnology, TX, USA) and β-actin mouse mAb (#A5441, Sigma). All primary antibodies were used in 1 : 1000 dilutions (in Tris-buffered saline containing 0.1% Tween20 (TBST) + 3% bovine serum albumin (BSA)). Secondary goat anti-mouse-IgG (Fc specific)-peroxidase antibody (#A0168, Sigma) and horseradish peroxidase(HRP)-labeled mouse anti-rabbit IgG (#sc-2357, Santa Cruz Biotechnology) were used at working dilutions of 1 : 10 000 (in TBST + 1% BSA).

Compound: CC(=O)C=C(C)[O-].CC(=O)C=C(C)[O-].Cc1ccc(C(=O)Nc2ccc(CNCCN)c(C(F)(F)F)c2)cc1C#Cc1cnc2cccnn12.O=C(O)C(F)(F)F.[Co+3] [Co(acac)2LPon, Bis(2,4-pentanedionato)N-(4-(((2-aminoethyl)amino)methyl)-3-(trifluoromethyl)phenyl)-3-(imidazo[1,2-b]pyridazin-3-ylethynyl)-4-methylbenzamide cobalt(III) 2,2,2-trifluoroacetate]
- intact complex remaining in FCS ([1]; 26 h, pH 7.4, 50 μM): ~90%
- intact compound remaining in FCS ([1]; 72 h, pH 7.4): ~70%
- activity on S6 phosphorylation compared with ponatinib [2]: equally active as compared to ponatinib
